Experimental data reported in PubChem BioAssay (NCI).
Several values for one entry are separate records, joined by “and”; a condition that tells them apart may be missing. Equal entries are not always repeated.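 Assay format: 96-well plates, 48-hour exposure. GI50: concentration for 50% inhibition of growth. At the TGI there is no net growth.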

Key:
Assay in all cases: NCI-60 cell line screen, 48 h
HOP-62 NSCLC = test system: HOP-62 NSCLC
SF-295 CNS = test system: SF-295 CNS
UO-31 renal = test system: UO-31 renal
MOLT-4 leukemia = test system: MOLT-4 leukemia
OVCAR-8 ovarian = test system: OVCAR-8 ovarian
TK-10 renal = test system: TK-10 renal
SNB-19 CNS = test system: SNB-19 CNS
RPMI-8226 leukemia = test system: RPMI-8226 leukemia
CAKI-1 renal = test system: CAKI-1 renal
U251 CNS = test system: U251 CNS

SMILES	TGI (HOP-62 NSCLC) [µM]	TGI (SF-295 CNS) [µM]	TGI (UO-31 renal) [µM]	TGI (MOLT-4 leukemia) [µM]	TGI (OVCAR-8 ovarian) [µM]	TGI (TK-10 renal) [µM]	TGI (SNB-19 CNS)	TGI (RPMI-8226 leukemia) [µM]	TGI (CAKI-1 renal) [µM]	TGI (U251 CNS)	GI50 (HOP-62 NSCLC) [µM]	GI50 (U251 CNS)	GI50 (UO-31 renal)	GI50 (MOLT-4 leukemia) [µM]	GI50 (OVCAR-8 ovarian) [µM]	GI50 (TK-10 renal) [µM]	GI50 (SNB-19 CNS)	GI50 (RPMI-8226 leukemia) [µM]	GI50 (CAKI-1 renal)	GI50 (SF-295 CNS) [µM]
O=C(O)c1c[nH]c2c(=O)[nH]cnc12	> 100	> 100	> 100	> 100	> 100	> 100	> 100 µM	> 100	> 100	–	–	–	–	–	–	–	–	–	–	–
O=C(Cc1nc2ccccc2c(=O)n1-c1c(Cl)cccc1Cl)c1ccncc1	47.9	36.5	55	42.2	> 100	> 10	> 100 µM	–	86.1	> 100 µM	–	–	–	–	–	–	–	–	–	–
CNC(=S)N/N=C1\CC(c2ccccc2)Oc2ccccc21 (stereo not given)	–	> 100	> 100	> 100	> 100	> 100	> 100 µM	–	> 100	> 100 µM	–	–	–	–	–	–	–	–	–	–
O=C(C/C(=N\NC(=O)C[n+]1ccccc1)C(=O)Nc1nc2ccc([N+](=O)[O-])cc2s1)CC(c1ccccc1)c1c(O)c2ccccc2oc1=O (stereo not given)	> 100	> 100	> 100	> 100	> 100	> 100	> 100 µM	> 100	> 100	–	–	–	–	–	–	–	–	–	–	–
NC(N)=NS(=O)(=O)c1ccc(Nc2c3ccccc3nc3c(C(=O)N4CCN(CCO)CC4)cccc23)cc1	> 100	> 100	> 100	> 100	> 100	> 100	> 100 µM	–	> 100	> 100 µM	–	–	–	–	–	–	–	–	–	–
O=C1c2ccccc2NC(c2cc(Cl)cc(Cl)c2O)N1CCc1ccccn1 (stereo not given)	> 100	> 100	> 100	–	> 100	> 100	> 100 µM	> 100	> 100	> 100 µM	–	–	–	–	–	–	–	–	–	–
O=C(O)C1CCc2nnc(-c3ccccc3)n21 (stereo not given)	> 100	–	> 100	> 100	> 100	> 100	> 100 µM	> 100	> 100	> 100 µM	–	–	–	–	–	–	–	–	–	–
COc1c(C2=NC(C(C)C)CO2)ccc2ccccc12 (stereo not given)	> 100	> 100	> 100	50.3	> 100	> 100	> 100 µM	65.6	> 100	–	–	–	–	–	–	–	–	–	–	–
O=C(/C=C/C12c3ccccc3C(c3ccccc31)C1C(=O)N(c3ccccc3)C(=O)C12)c1ccc(Cl)cc1 (stereo not given)	6.86	–	2.47	> 100	> 100	25.1	> 100 µM	4.68	3.52	4.82 µM	2.45	1.84 µM	1.12 µM	0.759	1.43	3.18	2.68 µM	1.16	1.02 µM	–
CCC1=C(C)/C(=C/c2[nH]c(C(Br)Br)c(CC)c2C)N=C1C(Br)Br	> 100	98.2	> 100	27.4	> 100	> 100	> 100 µM	39.9	–	86.4 µM	–	–	–	–	–	–	–	–	–	–
COc1ccc(C[n+]2c3ccccc3n3c4ccc(N)cc4ccc32)c(OC)c1OC	33.1	38.1	> 100	35.2	32.5	79.4	15.8 µM	7.64	–	14.5 µM	7.4	1.7 µM	40.1 µM	3.14	6.48	22.4	1.42 µM	0.512	–	4.22
CCOC(=O)C1=C(C)NC2SC(=O)/C(=C\c3ccccc3Cl)N2C1c1ccccc1 (stereo not given)	> 100	> 100	> 100	–	> 100	> 100	> 100 µM	> 100	> 100	> 100 µM	> 100	> 100 µM	> 100 µM	–	> 100	> 100	> 100 µM	79.7	> 100 µM	> 100
CC1(C)OC(=O)[C@@](C)([C@H](O)c2ccccc2)O1	> 100	> 100	> 100	> 100	> 100	> 100	> 100 µM	–	> 100	> 100 µM	–	–	–	–	–	–	–	–	–	–
C/C=C(\C)c1cc(=O)c2c(C)cc3c(c2o1)C(=O)c1c(O)c(C2CC(C)(N(C)C)C(O)C(C)O2)cc(C2CC(N(C)C)C(O)C(C)O2)c1C3=O (stereo not given)	–	–	–	15.6	–	0.729	7.54 µM and 28.8 µM	–	5.99	1.35 µM and 5.71 µM	–	0.206 µM and 1.74 µM	0.531 µM and 3.98 µM	0.687	–	–	0.404 µM and 2.6 µM	–	0.273 µM and 2.08 µM	–
N=Nc1c(OC(=O)Nc2ccccc2)[nH]c2ccccc12	36.4	30.2	25.6	–	33.9	60.8	63 µM	32.1	32.8	30.8 µM	–	–	–	–	–	–	–	–	–	–
Nc1ncnc2c1ncn2C1OC(CSC(F)(F)F)C(O)C1O (stereo not given)	> 100	> 100	> 100	> 100	> 100	> 100	–	> 100	> 100	> 100 µM	–	–	–	–	–	–	–	–	–	–
O=C(CC(=O)c1ccc([N+](=O)[O-])cc1)C(=O)Nc1nccs1	> 100	–	> 100	> 100	> 100	> 100	> 100 µM	> 100	> 100	> 100 µM	–	–	–	–	–	–	–	–	–	–
COc1cc(=O)oc(/C=C/C=O)c1C	34.9	30.3	39.4	77.3	81.1	76.2	28.5 µM	–	79.9	28.6 µM	–	–	–	–	–	–	–	–	–	–
Cc1ccc(C2CC(c3ccc([N+](=O)[O-])cc3)=Nc3ccccc3S2)cc1 (stereo not given)	> 100	> 100	> 100	69	72.3	> 100	> 100 µM	44.9	> 100	–	–	–	–	–	–	–	–	–	–	–
O=[N+]([O-])c1cc([N+](=O)[O-])c(Cl)c(Cl)c1Cl	3.05	23.1	3.08	5.82	4.57	3.65	12 µM	5.01	–	3.02 µM	1.67	1.59 µM	1.51 µM	0.831	1.94	1.8	3.36 µM	1.54	–	8.15
C=C[C@@]1(C)CCC2(O)C(CCC3C2(C)CCC[C@@]3(C)COC(=O)CC(=O)OC)C1 (stereo not given in full)	34	–	> 100	36	55	73.3	> 100 µM	47	> 100	32.2 µM	–	–	–	–	–	–	–	–	–	–
